Results: US5948750A, “Conjugates useful in the treatment of prostate cancer” (priority 1997, dated 1999)
Read-outs that look alike come from different tables or passages of the source. Square brackets hold non-standard residues; d marks the D form. Peptide text beside a SMILES is read from it. * marks the point of attachment. Doxorubicin(3'-N) = COc1cccc2c1C(=O)c1c(O)c3c(c(O)c1C2=O)C[C@@](O)(C(=O)CO)C[C@@H]3O[C@H]1C[C@H](N*)[C@H](O)[C@H](C)O1; Decanoyl(3,6,9-trioxa) = COCCOCCOCC(=O)*; Hyp = O=C(O)[C@@H]1C[C@@H](O)CN1; Chg = N[C@H](C(=O)O)C1CCCCC1; ΔPro = O=C(O)[C@@H]1C=CCN1

What was measured:
[1] = test system: DuPRO cells; experiment: In vitro cytotoxicity of peptidyl derivatives of doxorubicin, Alamar Blue assay, DuPRO; type: cell-based; conditions: 72 HRS, read-out: DUPRO Cell Kill in 72 HRS EC 50
Method: (§1) The cytotoxicities of the cleaveable oligopeptide-doxorubicin conjugates, prepared as described in Examples 3 and 4, against a line of cells which is known to be killed by unmodified doxorubicin were assessed with an Alamar Blue assay. Specifically, cell cultures of LNCap prostate tumor cells (which express enzymatically active PSA) or DuPRO cells in 96 well plates was diluted with medium (Dulbecco's […]-α[MEM-α]) containing various concentrations of a given conjugate (final plate well volume of 200 μl). The cells were incubated for 3 days at 37° C., 20 μl of Alamar Blue is added to the assay well. The cells were further incubated and the assay plates were read on a EL-310 ELISA reader at the dual wavelengths of 570 and 600 nm at 4 and 7 hours after addition of Alamar Blue. Relative percentage viability at the various concentration of conjugate tested was then calculated versus control (no conjugate) cultures. If no salt is indicated, the free conjugate was tested.

[2] = target: T1, free PSA (Homo sapiens, UniProt P07288); experiment: Recognition of oligopeptide-doxorubicin conjugates by free PSA (HPLC cleavage assay); type: biochemical; conditions: conjugate to PSA molar ratio 100 to 1; enzymatically active free PSA
T1 construct: required for 50% cleavage of the noted oligopeptides with enzymatically active free PSA
T1 sequence (P07288 25-261): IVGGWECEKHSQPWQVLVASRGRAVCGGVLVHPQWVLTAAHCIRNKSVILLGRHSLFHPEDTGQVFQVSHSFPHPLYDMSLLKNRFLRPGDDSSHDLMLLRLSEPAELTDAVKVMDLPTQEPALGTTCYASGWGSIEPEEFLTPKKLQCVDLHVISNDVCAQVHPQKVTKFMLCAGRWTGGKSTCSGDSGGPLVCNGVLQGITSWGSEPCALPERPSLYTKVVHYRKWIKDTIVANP
Method: The conjugates prepared as described in Examples 3-5 were individually dissolved in PSA digestion buffer (12 mM tris(hydroxymethyl)-aminomethane pH 8.0, 25 mM NaCl, 0.5 mM CaCl2) and the solution added to PSA at a molar ration of 100 to 1. Alternatively, the PSA digestion buffer utilized is 50 mM tris(hydroxymethyl)-aminomethane pH 7.4, 140 mM NaCl. The reaction is quenched after various reaction times by the addition of trifluoroacetic acid (TFA) to a final 1% (volume/volume). Alternatively the reaction is quenched with 10 mM ZnCl2. The quenched reaction was analyzed by HPLC on a reversed-phase C18 column using an aqueous 0.1% TFA/acetonitrile gradient. […] If no salt is indicated for the conjugate, the free conjugate was tested. The oligopeptide-cytotoxic agent conjugates described in Examples 4 and 5 were assessed for the amount of time (in minutes) required for 50% cleavage of the oligopeptide with enzymatically active free PSA and 50% cleavage occurred in less than 2 hours for those conjugates.

[3] = test system: LNCap prostate tumor cells (which express enzymatically active PSA); experiment: In vitro cytotoxicity of peptidyl derivatives of doxorubicin, Alamar Blue assay, LNCaP; type: cell-based; conditions: 72 HRS (3 days at 37° C.), read-out: LNCaP Cell Kill in 72 HRS EC 50
Method: as §1

[4] = target: T1, free PSA; type: biochemical; conditions: for Substrate cleavage by PSA at 3 hours: oligopeptide to PSA molar ratio 100 to 1; for Time to 50% Substrate Cleavage by PSA: free psa
Method: The oligopeptides prepared as described in Example 1 were individually dissolved in PSA digestion buffer (12 mM tris(hydroxymethyl)-aminomethane pH 8.0, 25 mM NaCl, 0.5 mM CaCl2) and the solution added to PSA at a molar ration of 100 to 1. Alternatively, the PSA digestion buffer utilized is 50 mM tris(hydroxymethyl)-aminomethane pH 7.4, 140 mM NaCl. The reaction is quenched after various reaction times by the addition of trifluoroacetic acid (TFA) to a final 1% (volume/volume). Alternatively the reaction is quenched with 10 mM ZnCl2. The quenched reaction was analyzed by HPLC on a reversed-phase C18 column using an aqueous 0.1% TFA/acetonitrile gradient. […] Oligopeptides containing free amine moieties (ie. comprising hArg, Orn, Lys and or 3PAL) were tested as TFA salts. All other oligopeptides were tested as neutral compounds.

Compound | Time to 50% Substrate Cleavage by PSA [2] | Substrate cleavage by PSA at 3 hours [4] | Time to 50% Substrate Cleavage by PSA [4] | further results
COc1cccc2c1C(=O)c1c(O)c3c(c(O)c1C2=O)C[C@@](O)(C(=O)CO)C[C@@H]3O[C@H]1C[C@H](NC(=O)[C@H](CC(C)C)NC(=O)[C@H](CO)NC(=O)[C@H](CCC(N)=O)NC(=O)[C@@H](NC(=O)[C@H](CO)NC(=O)[C@H](C)NC(=O)[C@@H]2C[C@@H](O)CN2C(C)=O)C2CCCCC2)[C@H](O)[C@H](C)O1 (relative stereo) [Ac-(4-trans-L-Hyp)ASChgQ-SL-DOX (3'), [N-Ac-(4-trans-L-Hyp)]-Ala-Ser-Chg-Gln-Ser-Leu-Dox] | 20 min |  |  | EC50 [1]: 90 µM; EC50 [3]: 4.5 µM
COCCOCCOCC(=O)N1C[C@H](O)C[C@H]1C(=O)N[C@@H](C)C(=O)N[C@@H](CO)C(=O)N[C@H](C(=O)N[C@@H](CCC(N)=O)C(=O)N[C@@H](CO)C(=O)N[C@@H](CC(C)C)C(=O)N[C@H]1C[C@H](O[C@H]2C[C@](O)(C(=O)CO)Cc3c(O)c4c(c(O)c32)C(=O)c2c(OC)cccc2C4=O)O[C@@H](C)[C@H]1O)C1CCCCC1 [PEG(2)-(4-trans-L-Hyp)ASChgQ-SL-DOX (3')] ({Decanoyl(3,6,9-trioxa)}-[Hyp]AS[Chg]QSL-{Doxorubicin(3'-N)}) | 20 min |  |  | 
COCCOCCOCC(=O)N1C[C@H](O)C[C@H]1C(=O)N[C@@H](C)C(=O)N[C@@H](CO)C(=O)N[C@H](C(=O)N[C@@H](CCC(N)=O)C(=O)N[C@@H](CO)C(=O)N[C@@H](CC(C)C)C(=O)O)C1CCCCC1 [PEG(2)-(4-trans-L-Hyp)-ASChgQ-SL-acid] ({Decanoyl(3,6,9-trioxa)}-[Hyp]AS[Chg]QSL-OH) |  | 44% |  | 
COc1cccc2c1C(=O)c1c(O)c3c(c(O)c1C2=O)C[C@@](O)(C(=O)CO)C[C@@H]3O[C@H]1C[C@H](NC(=O)[C@H](CC(C)(C)C)NC(=O)[C@H](CO)NC(=O)[C@H](CCC(N)=O)NC(=O)[C@@H](NC(=O)[C@H](CO)NC(=O)[C@H](C)NC(=O)[C@@H]2C[C@@H](O)CN2C(C)=O)C2CCCCC2)[C@H](O)[C@H](C)O1 | 25 min |  |  | 
CC(=O)N1CC=C[C@H]1C(=O)N[C@@H](C)C(=O)N[C@@H](CO)C(=O)N[C@H](C(=O)N[C@@H](CCC(N)=O)C(=O)N[C@@H](CO)C(=O)N[C@@H](CC(C)C)C(=O)O)C1CCCCC1 [Ac-(Dehydro-Pro)-ASChgQ-SL-acid] (Ac-[ΔPro]AS[Chg]QSL-OH) |  | 28% |  | 
CC(=O)N1C[C@H](O)C[C@H]1C(=O)N[C@H](C(=O)N[C@@H](CCC(N)=O)C(=O)N[C@@H](CO)C(=O)N[C@@H](CO)C(=O)N[C@@H](CO)C(=O)N[C@@H](CC(C)C)C(=O)O)C1CCCCC1 [Ac-(4-trans-L-Hyp)ChgQ-SSSL-acid] (Ac-[Hyp][Chg]QSSSL-OH) |  | 0% |  | 
CC(=O)N1C[C@H](O)C[C@H]1C(=O)N[C@@H](C)C(=O)N[C@@H](CO)C(=O)N[C@H](C(=O)N[C@@H](CCC(N)=O)C(=O)N[C@@H](CO)C(=O)N[C@@H](CC(C)C)C(=O)O)C1CCCCC1 [Ac-(4-trans-L-Hyp)ASChgQ-SL-acid, [N-Ac-(4-trans-L-Hyp)]-Ala-Ser-Chg-Gln-Ser-Leu-OH] (Ac-[Hyp]AS[Chg]QSL-OH) |  |  | 75 min | 
CC(=O)N1CCC[C@H]1C(=O)N[C@@H](C)C(=O)N[C@@H](CO)C(=O)N[C@H](C(=O)N[C@@H](CCC(N)=O)C(=O)N[C@@H](CO)C(=O)N[C@@H](CC(C)C)C(=O)O)C1CCCCC1 [Ac-PASChgQ-SL-acid] (Ac-PAS[Chg]QSL-OH) |  |  | 150 min | 
CC(=O)N1C[C@H](O)C[C@H]1C(=O)N[C@@H](C)C(=O)N[C@@H](CO)C(=O)N[C@H](C(=O)N[C@@H](CCC(N)=O)C(=O)N[C@@H](CO)C(=O)N1Cc2ccccc2C[C@H]1C(=O)O)C1CCCCC1 [Ac-(4-trans-L-Hyp)ASChgQ-S(TIC)-acid] |  | 16% |  | 
CC(=O)N1CCC[C@H]1C(=O)N[C@@H](CO)C(=O)N[C@@H](CO)C(=O)N[C@H](C(=O)N[C@@H](CCC(N)=O)C(=O)N[C@@H](CO)C(=O)N[C@H](C(=O)O)C(C)C)C1CCCCC1 [Ac-PSSChgQ-SV-acid] |  |  | 120 min | 
